Among the data in PubChem BioAssay (NCI) are TGI values, retold here.

Holding throughout (test): inhibition of tumour cell growth, NCI panel, 48 h
The test system of experiment [1] is CCRF-CEM leukemia.
The subject of experiment [2] is K-562 leukemia.
The test system of experiment [3] is SR leukemia.
Experiment [4] concerns LOX IMVI melanoma.
Experiment [5] relates to NCI/ADR-RES ovarian.
The test system of experiment [6] is HT29 colon.
The subject of experiment [7] is SF-268 CNS.
The subject of experiment [8] is M14 melanoma.
For experiment [9], the system named is SK-MEL-28 melanoma.
Experiment [10] concerns SN12C renal.
In experiment [11] the test system is OVCAR-3 ovarian.
The test system of experiment [12] is NCI-H522 lung.
Experiment [13] deals with RPMI-8226 leukemia.
Experiment [14] concerns KM12 colon.
Experiment [15] deals with TK-10 renal.

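Step 1: Grow cells in 96-well plates. Step 2: Expose to compound for 48 hours at 5 concentrations. Step 3: Interpolate endpoints linearly; if unreached, use highest concentration. TGI: total growth inhibition.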

For `CSc1ccc(Nc2cc(=O)[nH]c(=O)[nH]2)cc1`, the TGI in [1], in [2], in experiment [3], in experiment [4], in experiment [5] and in [6] was more than 100 µM in each case. In addition, the TGI in [7], in experiment [8], in experiment [9], in [10], in experiment [11] and in experiment [12] was more than 100 µM in each case. The molecule further came in with a TGI in [13] of more than 100 µM.

Consider `CC(=O)OCC(=O)OC[C@H](OCc1ccccc1)[C@@H]1[C@H](OC(C)=O)C(=O)N1Cc1ccccc1`, for which the TGI in [1], in experiment [2], in experiment [3], in [4], in experiment [5] and in [6] was more than 100 µM each time. Moreover, the TGI in experiment [7], in experiment [8], in experiment [9], in experiment [14], in [10] and in experiment [15] was more than 100 µM each time. For the same molecule, the TGI in [11] and in experiment [13] was more than 100 µM each time.

For `Nc1nc(NCCCO)cc(=O)[nH]1`, the TGI in experiment [1], in [2], in experiment [3], in experiment [4], in experiment [5] and in [6] was more than 100 µM each time. For the same molecule, the TGI in [7], in experiment [8], in experiment [9], in [14], in experiment [10] and in experiment [11] was more than 100 µM each time. Further, the TGI in experiment [12] and in [13] was more than 100 µM in each case.

As for `COc1c(C(=O)NCCN(CCNC(=O)c2cccc(-c3cccc(C(=O)N(C)C)c3OC)c2OC)CCNC(=O)c2cccc(-c3cccc(C(=O)N(C)C)c3OC)c2OC)cccc1-c1cccc(C(=O)N(C)C)c1OC`, the TGI in [1] was 72.7 µM; in experiment [2] it was 65 µM; in experiment [3] it was 71.5 µM; in experiment [4], 33.7 µM; in [5], more than 100 µM; in experiment [6], more than 100 µM. The TGI in [7] was 47.2 µM; in experiment [8], more than 100 µM; in experiment [9], 41.5 µM; in [14], 31.6 µM; in experiment [10], more than 100 µM; in experiment [11] it was 32.5 µM. In addition, the results for the TGI in [12] and in experiment [13] were 43.5 µM and 63.7 µM, respectively.

In the case of `O=C1O[C@H]2[C@H](OC(=O)c3cc(O)c(O)c(O)c3)[C@@H](OC(=O)c3cc(O)c(O)c4c3[C@@H]3C1=CC(=O)C(O)(O)C3(O)O4)[C@H](OC(=O)c1cc(O)c(O)c(O)c1)O[C@@H]2COC(=O)c1cc(O)c(O)c(O)c1` (stereo partly specified), the TGI in experiment [1], in experiment [2], in experiment [3], in experiment [4], in experiment [5] and in experiment [6] was more than 100 µM each time. Besides, the TGI is more than 100 µM in experiment [7]; more than 100 µM in experiment [8]; more than 100 µM in experiment [9]; 41.1 µM in [14]; more than 100 µM in experiment [10]; more than 100 µM in [11]. Further, the TGI in [12] and in experiment [13] was more than 100 µM throughout.

On to `CN(CCCNC(=O)c1cn(C)c2c1Cc1ccccc1-2)CCCNC(=O)c1cn(C)c2c1Cc1ccccc1-2`, for which the TGI in [1] stood at 17.2 µM; in experiment [2], 17 µM; in [3] it was 11.1 µM; in [4], 24.6 µM; in [5], 28 µM; in experiment [6], 5.7 µM. For the same molecule, the TGI was 21.3 µM in [7]; 11.6 µM in experiment [8]; 24 µM in experiment [9]; 26.9 µM in experiment [14]; 27 µM in experiment [10]; 25.1 µM in [15]. The TGI was 31.3 µM in experiment [11] and more than 100 µM in [13].

In the case of `Cc1ccc2nc(C(C)C)c(=O)[nH]c2c1`, the TGI in experiment [1], in experiment [2], in experiment [3], in [5], in [6] and in [7] was more than 100 µM each time. The TGI in experiment [8] is more than 100 µM; in experiment [9], more than 100 µM; in experiment [14], more than 100 µM; in experiment [10] it was more than 100 µM; in experiment [15] it was more than 100 µM; in [11] it was 32.8 µM. The TGI in [12] and in experiment [13] was more than 100 µM throughout.

For the molecule `CCOP(=O)(OCC)C(NC(=O)C(C(F)(F)F)C(F)(F)F)c1ccccc1` (stereo unspecified), the TGI in experiment [1], in experiment [2], in [3], in experiment [4], in [5] and in [6] was more than 100 µM throughout. The TGI in experiment [7], in [8], in experiment [9], in experiment [14], in experiment [10] and in experiment [15] was more than 100 µM throughout. Also, the TGI is more than 100 µM in experiment [11] and 67 µM in experiment [13].

`CSc1nc2c(c(=O)n1C)N=C(c1ccc([N+](=O)[O-])cc1)CC(c1ccccc1)N2` (stereo unspecified): the TGI in experiment [1], in experiment [2], in [3], in [4], in experiment [5] and in [6] was more than 100 µM in each case. Moreover, the TGI in experiment [8], in experiment [9], in [14], in experiment [10], in [11] and in experiment [12] was more than 100 µM in each case. The molecule further returned a TGI in experiment [13] of more than 100 µM.

For `CCOP(=O)(OCC)C(C(=O)OC)C(=O)C(=O)Nc1cccc(O)c1` (stereo unspecified), the TGI in experiment [1], in [3], in experiment [4], in [5], in experiment [6] and in experiment [7] was more than 100 µM each time. In addition, the TGI in experiment [8], in experiment [9], in experiment [14], in experiment [10], in experiment [15] and in experiment [11] was more than 100 µM in each case. This molecule yielded a TGI in experiment [12] of more than 100 µM.

Turning to `O=C(c1ccccc1)N1CCC(CC2(c3cc4ccccc4[nH]3)OCCO2)CC1`, the TGI in experiment [1] was more than 100 µM; in experiment [2] it was 37.6 µM; in experiment [3], more than 100 µM; in experiment [4], 35.6 µM; in experiment [5], more than 100 µM; in [6], 85.9 µM. The TGI is more than 100 µM in [7]; 39.6 µM in [8]; 37.4 µM in experiment [9]; more than 100 µM in [14]; more than 100 µM in experiment [10]; more than 100 µM in [15]. Moreover, the TGI was more than 100 µM in experiment [11] and 6.36 µM in experiment [13].

With `CCc1ccc(COC(=O)C2=C(C)NC(C)=C(C(=O)OCc3ccc(CC)cn3)C2C2=COCCO2)nc1`, the TGI in experiment [1] was 49.8 µM; in experiment [2], 53.7 µM; in [3], more than 100 µM; in experiment [4], 29.1 µM; in experiment [5], 63.4 µM; in [6], 43.7 µM. Moreover, the TGI in experiment [7] is more than 100 µM; in experiment [8], 31.1 µM; in [9], 35 µM; in [14] it was 87.1 µM; in experiment [15] it was more than 100 µM; in experiment [11], 54.7 µM. The same molecule came in with a TGI in experiment [12] of 40.7 µM.

For `COc1ccc(-c2c3c(n(C4OC(CO)C(O)C(O)C4O)c(=S)c2C#N)CCCC3)cc1` (stereo unspecified), the TGI in [1], in experiment [3], in experiment [4], in experiment [5], in experiment [6] and in experiment [8] was more than 100 µM throughout. Besides, the TGI in experiment [14], in [10], in experiment [15] and in experiment [11] was more than 100 µM each time.

For `Fc1ccc2c3c([nH]c2c1)CCN(Cc1ccccc1)C3`, the TGI in experiment [1] was more than 100 µM; in experiment [2] it was 41 µM; in experiment [3], 40.7 µM; in experiment [4] it was 33.5 µM; in experiment [5] it was 71 µM; in experiment [6], 47.9 µM. In addition, the TGI is 49.2 µM in experiment [7]; 34.5 µM in experiment [8]; 30.3 µM in experiment [9]; 29 µM in [14]; 35.4 µM in [10]; 77.2 µM in [13].

As for `Cc1ccc2c(=O)cc(-c3ccc(C)s3)[nH]c2n1`, the TGI in experiment [2] is more than 100 µM; in [3], more than 100 µM; in experiment [4] it was more than 42.9 µM; in [5] it was 0.676 µM; in experiment [7], more than 74 µM; in [8] it was 55.9 µM. Also, the TGI in experiment [14] was 15.9 µM; in [10], more than 55.9 µM; in experiment [15], more than 100 µM; in experiment [11] it was more than 46.8 µM; in [13], 2.57 µM.

Regarding `COc1cccc(C2c3cc4c(cc3OC(NNS(=O)(=O)c3ccc(C)cc3)C2C)OCO4)c1OC` (stereo unspecified), the TGI was 5.31 µM in [1]; 6.79 µM in [2]; 3.29 µM in experiment [3]; 5.15 µM in experiment [4]; 13.9 µM in experiment [6]; more than 100 µM in [7]. Besides, the TGI was more than 100 µM in [8]; more than 100 µM in experiment [9]; 13.5 µM in [14]; 35.3 µM in experiment [10]; 49.8 µM in experiment [15]; 4.55 µM in [11]. Moreover, the TGI in [12] was 8.61 µM; in [13] it was 6.86 µM.

As to `O=Cc1cc(C(=O)OCc2ccccc2)n(S(=O)(=O)c2ccccc2)c1`, the TGI in [1] is more than 100 µM; in [2] it was more than 100 µM; in [3] it was more than 100 µM; in [4], 62.5 µM; in [5], 98.6 µM; in [6], 48.4 µM. Moreover, the TGI in [7] was 65.5 µM; in experiment [8] it was 36.2 µM; in [9], 30.2 µM; in [14], 37.6 µM; in experiment [10], 66.1 µM; in [15] it was 69.6 µM. Moreover, the values for the TGI in experiment [11] and in experiment [12] were 35.6 µM and more than 100 µM, respectively.

For the molecule `CN(C)N1C(=O)S/C(=C\c2ccc([N+](=O)[O-])cc2)C1=O`, the TGI in experiment [1], in [3], in experiment [4], in experiment [5], in experiment [6] and in experiment [7] was more than 100 µM throughout. Besides, the TGI in experiment [8], in experiment [9], in experiment [14], in experiment [10], in experiment [15] and in [11] was more than 100 µM in each case. The TGI in [12] is more than 100 µM.

With `COc1ccc2c(c1)CCCN1CCc3ccccc3C21` (stereo unspecified), the TGI was more than 100 µM in experiment [1]; more than 100 µM in [2]; 61.2 µM in experiment [3]; more than 100 µM in experiment [4]; 49.5 µM in [5]; more than 100 µM in experiment [6]. Further, the TGI was more than 100 µM in [7]; 51.5 µM in experiment [8]; more than 100 µM in experiment [9]; more than 100 µM in experiment [14]; 77.7 µM in experiment [10]; more than 100 µM in [15]. The TGI in [11] and in experiment [12] was more than 100 µM in each case.

For the molecule `O=[N+]([O-])c1ccc(-n2nc3ccc4c(no[n+]4[O-])c3n2)cc1`, the TGI in experiment [1], in experiment [2], in experiment [3], in experiment [4], in experiment [5] and in experiment [6] was more than 100 µM throughout. Besides, the TGI in [7], in [8], in [9], in experiment [14], in experiment [10] and in experiment [15] was more than 100 µM in each case. The TGI in experiment [11] and in [12] was more than 100 µM throughout.
